# From patent US12410448B2, “Nanoparticle compositions containing sugar functionalized nucleic acid carriers” (TIBA Biotech LLC, priority 2021, dated 2025)
# What was measured:
# [1] = Encapsulation efficiency by Ribogreen assay; assay type: physicochemical; settings: nanoparticle composition with SEAP mRNA, formulated at pH 5; dendron:DOPE:cholesterol:DMG-PEG2k 1:0.6:2.88:0.1
# From the text: As used herein, “encapsulated” can refer to a nanoparticle that provides an active agent or therapeutic agent with full encapsulation, partial encapsulation, or both. In an embodiment, the therapeutic agent is a nucleic acid (as a non-limiting example, a messenger RNA), In a preferred embodiment, the nucleic acid is fully encapsulated in the nanoparticle. In the context of nucleic acid therapeutic agents, full encapsulation may be determined by a Ribogreen® assay. RiboGreen® is an ultra-sensitive fluorescent nucleic acid stain for quantitating oligonucleotides and single-stranded DNA or RNA in solution (available from Thermo Fisher Scientific-US).
# Nanoparticles containing the deoxy sugar-modified polyesteramine dendron (e.g PE Dendron_G2-2 deoxyGlucose-A1-Ricinoleic):DOPE:cholesterol:DMG-PEG2k at molar ratios of 1:0.6:2.88:0.1 were formulated using NanoAssembir Benchtop (Precision NanoSystems Inc, Vancouver, BC, Canada)). RNA was diluted with DNase/RNase-Free, endotoxin free distilled water and sterile citrate buffer to a final desired pH. […] Encapsulation efficiency was measured to be 95% for the nanoparticle composition containing PE Dendron_G2-2 deoxyGlucose-A1-Ricinoleic and SEAP mRNA (formulated at pH 5) using Ribogreen® assay (Geall et al. 10.1073/pnas.1209367109 which is incorporated herein by reference as if fully set forth). […]
# SEAP expression = test: In vivo SEAP production, deoxy sugar dendrons; set-up: species or system mice; settings: FIG. 4 legend; SEAP mRNA nanoparticles
# Protocol: To test formulations of different monosaccharides based dendrons, the secreted embryonic alkaline phosphatase SEAP reporter system was used. For in vivo tests, mice were injected with nanoparticles at a dose of 5 ug of SEAP mRNA, and 16 hrs later, serum was collected from the mice. The amount of […] using the Invitrogen NovaBright™ Phospha-Light™ EXP Assay kits for SEAP detection according to the manufacturer's protocol. The amount of SEAP in the mouse serum samples are reported in Arbitrary Units (A.U.) as measured in a BioTek Synergy HTX microplate reader. Error bars are±S.E.M. Referring to FIG. 4b, it was observed that the SEAP amount was higher with the PE Dendron_G2-1 deoxyGlucose-A1-Ricinoleic than the other regioisomers: PE Dendron_G2-2 deoxyGlucose-A1-Ricinoleic and PE Dendron_G2-6 deoxyGlucose-A1-Ricinoleic. Referring to FIG. 5b, it was also observed that the SEAP amount was higher with the PE Dendron_G2-2 deoxyGlucose-A5-Ricinoleic than PE Dendron_G2-2 deoxyGlucose-A1-Ricinoleic indicating pKa of the ionizable delivery molecules influences the ability of the nanoparticles to deliver functionally active RNA.
# [2] = Hydrodynamic size measurement by dynamic light scattering (DLS); assay type: physicochemical; settings: nanoparticle composition with SEAP mRNA
# SARS-CoV-2 Spike protein = test: COVID-19 Spike trimer direct serum ELISA after vaccination; assay type: in vivo
# BHK cells = test: In vitro SEAP production; assay type: cell-based
# Protocol: To test the ability of the nanoparticles formulated with different deoxy sugar based dendrons to express SEAP in vitro, BHK cells were treated with nanoparticles. Each well of a 12 well dish of BHKs was treated with 20 μL (approximately 1 μg) of each formulation product diluted into a final volume of 500 μL with a 1:1 Optimem:PBS mix. The nontreated wells had 500 μL of 50/50 PBS/OptiMEM. Twenty four hours post-treatment or transfection, conditioned media from each culture was collected. The amount of SEAP was quantified using the Invitrogen NovaBright™ Phospha-Light™ EXP Assay kits for SEAP detection according to the manufacturer's protocol. The amount of SEAP in the media samples are reported in Arbitrary Units (A.U.) as measured in a BioTek Synergy HTX microplate reader. Error bars are ±S.E.M. Referring to FIG. 4a, it was observed that the SEAP amount was higher with the PE Dendron_G2-2 deoxyGlucose-A1-Ricinoleic than the other regioisomers: PE Dendron_G2-1 deoxyGlucose-A1-Ricinoleic and PE Dendron_G2-6 deoxyGlucose-A1-Ricinoleic. […]
smiles,measurement,setting,value
CCCCCC[C@H](O)C/C=C\CCCCCCCC(=O)NCCCN(C)CCCNC(=O)OCC(C)(COC(=O)NCCCN(C)CCCNC(=O)CCCCCCC/C=C\C[C@@H](O)CCCCCC)C(=O)OCC(C)(COC(=O)C(C)(COC(=O)NCCCN(C)CCCNC(=O)CCCCCCC/C=C\C[C@@H](O)CCCCCC)COC(=O)NCCCN(C)CCCNC(=O)CCCCCCC/C=C\C[C@@H](O)CCCCCC)C(=O)OCc1cn([C@H]2C(O)O[C@H](CO)[C@@H](O)[C@@H]2O)nn1 (some centres unmarked),Encapsulation efficiency,[1],95%
same,SEAP protein production in vivo,SEAP expression,resulted in SEAP protein production
same,"Nanoparticle size at strongest intensity (Z average, DLS)",[2],113.3 nm·days
same,Polydispersity index of size distribution,[2]; single peak,low
same,Immunogenicity upon IM administration (anti-Spike IgG titer),SARS-CoV-2 Spike protein; compared with Dlin-MC3-DMA control,superior
same,Endpoint dilution titer of serum anti-Spike IgG,SARS-CoV-2 Spike protein; compared with PE Dendron_G2-2 deoxyGlucose-A5-Ricinoleic,higher
same,SEAP amount in conditioned media,"BHK cells; FIG. 4a, BHK cells, 24 h, about 1 μg, compared with regioisomers 1 deoxyGlucose-A1 and 6 deoxyGlucose-A1",higher
same,SEAP protein production in vitro,"BHK cells; FIG. 4 legend, SEAP mRNA nanoparticles",resulted in SEAP protein production
